Assay results from ChEMBL document CHEMBL5331115, “Design, Synthesis, and Pharmacological Characterization of a Potent Soluble Epoxide Hydrolase Inhibitor for the Treatment of Acute Pancreatitis” (J Med Chem, 2023).
The source made the active and inactive calls. No cut-off for these calls is given here.

Columns and labels:
Mus musculus [1] = test: Antiinflammatory activity in cerulein-induced CD-1 mouse assessed as reduction in pancreatic injury at 10 mg/kg, ip administered on 0.5 and 2.5 hrs post first cerulein administration measured after 6 hrs by Hematoxylin and eosin staining based analysis; type: functional, organism-based
Mus musculus [2] = test: Antiinflammatory activity in cerulein-induced CD-1 mouse assessed as reduction in serum ALT at 10 mg/kg, ip administered on 0.5 and 2.5 hrs post first cerulein administration measured after 6 hrs by Hematoxylin and eosin staining based analysis; type: functional, organism-based
Mus musculus [3] = test: Antiinflammatory activity in cerulein-induced CD-1 mouse assessed as reduction of cell infiltration at 10 mg/kg, ip administered on 0.5 and 2.5 hrs post first cerulein administration measured after 6 hrs by Hematoxylin and eosin staining based analysis; type: functional, organism-based
Mus musculus [4] = test: Antiinflammatory activity in cerulein-induced CD-1 mouse assessed as reduction of edema at 10 mg/kg, ip administered on 0.5 and 2.5 hrs post first cerulein administration measured after 6 hrs by Hematoxylin and eosin staining based analysis; type: functional, organism-based
Mus musculus [5] = test: Antiinflammatory activity in cerulein-induced CD-1 mouse assessed as reduction in lung neutrophilia at 10 mg/kg, ip administered on 0.5 and 2.5 hrs post first cerulein administration measured after 6 hrs by Hematoxylin and eosin staining based analysis; type: functional, organism-based
[6] = biological target: T1, Prostaglandin G/H synthase 2 (Mus musculus, UniProt Q05769); test: Inhibition of COX-2 in LPS-stimulated mouse J774 cells assessed as inhibition of PGE2 production pretreated for 2 hrs followed by stimulation with LPS measured after 24 hrs by ELISA analysis; type: cell-based
T1 sequence (Q05769 whole entry): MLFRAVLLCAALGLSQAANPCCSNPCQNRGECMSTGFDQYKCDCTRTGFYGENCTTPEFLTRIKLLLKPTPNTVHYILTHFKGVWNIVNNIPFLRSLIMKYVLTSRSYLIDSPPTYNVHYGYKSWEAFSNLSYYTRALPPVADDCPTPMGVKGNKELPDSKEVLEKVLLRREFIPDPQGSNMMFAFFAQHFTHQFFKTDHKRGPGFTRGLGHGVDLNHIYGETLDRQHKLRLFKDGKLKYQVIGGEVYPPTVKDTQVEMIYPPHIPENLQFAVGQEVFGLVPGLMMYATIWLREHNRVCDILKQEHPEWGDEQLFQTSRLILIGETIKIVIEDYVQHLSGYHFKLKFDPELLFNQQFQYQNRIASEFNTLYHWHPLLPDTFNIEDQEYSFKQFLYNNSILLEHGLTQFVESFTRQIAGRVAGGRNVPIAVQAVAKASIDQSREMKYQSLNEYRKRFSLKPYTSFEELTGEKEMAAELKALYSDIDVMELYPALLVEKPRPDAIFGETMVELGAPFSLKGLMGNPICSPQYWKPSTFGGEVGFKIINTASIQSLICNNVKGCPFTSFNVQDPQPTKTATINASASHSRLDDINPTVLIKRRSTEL

Mus musculus [7] = test: Antiinflammatory activity in cerulein-induced CD-1 mouse assessed as reduction of neutrophil numbers at 10 mg/kg, ip administered on 0.5 and 2.5 hrs post first cerulein administration measured after 6 hrs by Hematoxylin and eosin staining based analysis; type: functional, organism-based
Mus musculus [8] = test: Antiinflammatory activity in cerulein-induced CD-1 mouse assessed as reduction in serum AST at 10 mg/kg, ip administered on 0.5 and 2.5 hrs post first cerulein administration measured after 6 hrs by Hematoxylin and eosin staining based analysis; type: functional, organism-based
Mus musculus [9] = test: Antiinflammatory activity in cerulein-induced CD-1 mouse assessed as reduction in lung inflammation at 10 mg/kg, ip administered on 0.5 and 2.5 hrs post first cerulein administration measured after 6 hrs by Hematoxylin and eosin staining based analysis; type: functional, organism-based

Structure (SMILES)	Activity (Mus musculus [1])	Activity (Mus musculus [2])	Activity (Mus musculus [3])	Activity (Mus musculus [4])	Activity (Mus musculus [5])	IC50 [6] [µM]	Activity (Mus musculus [7])	Activity (Mus musculus [8])	Activity (Mus musculus [9])
O=C(O)CCCCCCCCCCCNC(=O)NC12CC3CC(CC(C3)C1)C2	Active	–	–	–	–	–	–	–	–
CC(C)c1ccc(Cn2ccc3cc(NC(=O)NCC45C[C@H]6C[C@@H](C4)C[C@@H](C5)C6)ccc32)cc1	–	Active	Active	Active	Active	> 10	Active	Active	Active
